The values that follow come from US20110009421A1, “COMPOUND HAVING 6-MEMBERED AROMATIC RING” (TAKEDA PHARMACEUTICAL COMPANY LIMITED, priority 2008, published 2011).

Counter-ions that a name gives are not always drawn.

For the assay, the target named is T1, human GPR52 (Homo sapiens, UniProt Q9Y2T5).
T1 construct: expressed in transfected cells; host or cells: CHO (dhfr-) cells
T1 sequence (Q9Y2T5 whole entry): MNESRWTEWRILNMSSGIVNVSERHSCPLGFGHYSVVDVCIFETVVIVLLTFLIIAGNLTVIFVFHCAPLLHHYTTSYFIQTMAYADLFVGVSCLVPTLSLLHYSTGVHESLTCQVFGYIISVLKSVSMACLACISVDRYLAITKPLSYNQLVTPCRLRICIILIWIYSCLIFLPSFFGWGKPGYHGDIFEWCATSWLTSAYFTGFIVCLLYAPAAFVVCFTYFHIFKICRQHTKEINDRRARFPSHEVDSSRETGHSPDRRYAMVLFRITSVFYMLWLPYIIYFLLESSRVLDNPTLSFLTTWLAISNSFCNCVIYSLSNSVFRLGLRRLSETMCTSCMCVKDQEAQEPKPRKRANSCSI
Description: Increased intracellular cAMP levels in human GPR52 expression CHO cells (AlphaScreen cAMP assay). Particulars: 1 μM test compound, 30 min at 37° C., human GPR52 expression CHO (dhfr−) cells; intracellular cAMP level, 100% = 1 μM 3-(6-(2-(3,4-dimethoxyphenyl)ethoxy)pyridin-2-yl)-N-(2-pyrrolidin-1-ylethyl)benzamide, 0% = DMSO. In kind it is cell-based. The method, then:
Increased Intracellular cAMP Levels in Human GPR52 Expression CHO Cells
1×10^4 human GPR52 expression CHO (dhfr−) cells were incubated with 1 μM test compound for 30 min at 37° C. in 30 μL assay buffer (HBSS (containing Ca^2+ and Mg^2+), 0.5% BSA, 100 μM IBMX, 100 μM Ro 20-1724, 5 mM HEPES (pH 7.55)) using an OptiPlate-384 (by PerkinElmer). The intracellular cAMP level was then assayed with an EnVision (by PerkinElmer) according to the protocol of the AlphaScreen cAMP Assay Kit (by PerkinElmer). The GPR52 agonist activity was calculated, assuming the intracellular cAMP level to be 100% in the presence of 1 μM of 3-(6-(2-(3,4-dimethoxyphenyl)ethoxy)pyridin-2-yl)-N-(2-pyrrolidin-1-ylethyl)benzamide obtained in Reference Example 39 and assuming the intracellular cAMP level to be 0% when DMSO was added instead of test compound.
In the case of `COc1ccc(CCNc2nccc(-c3cccc(NC(C)=O)c3)n2)cc1OC` [Working Example 1, N-(3-(2-(2-(3,4-dimethoxyphenyl)ethylamino)pyrimidin-4-yl)phenyl)acetamide], the “GPR52 agonist activity (%)” value is 69%.

Take `COc1cccc(C(=O)Nc2cccc(-c3ccnc(NCCc4ccc(OC)c(OC)c4)n3)c2)c1` [Working Example 12, N-(3-(2-(2-(3,4-dimethoxyphenyl)ethylamino)pyrimidin-4-yl)phenyl)-3-methoxybenzamide]: the “GPR52 agonist activity (%)” value amounted to 47%. In the case of `COc1ccc(CCNc2nccc(-c3cccc(NC(=O)CCCN4CCCC4)c3)n2)cc1OC` [Working Example 19] it was 85%; in that of `COc1ccc(CCNc2nccc(-c3cccc(NC(=O)C4CCNCC4)c3)n2)cc1OC` [Working Example 22, N-(3-(2-((2-(3,4-dimethoxyphenyl)ethyl)amino)pyrimidin-4-yl)phenyl)piperidine-4-carboxamide hydrochloride], 80%; in that of `COc1ccc(CCNc2nccc(-c3cccc(NC(=O)CC4CCCN4)c3)n2)cc1OC` (centres unmarked) [Working Example 25, N-(3-(2-((2-(3,4-Dimethoxyphenyl)ethyl)amino)pyrimidin-4-yl)phenyl)-2-pyrrolidin-2-yl acetamide hydrochloride], 71%. `COc1ccc(CCNc2nccc(-c3cccc(NC(=O)CC4CCCN4C)c3)n2)cc1OC` (centres unmarked) [Working Example 28, N-(3-(2-((2-(3,4-dimethoxyphenyl)ethyl)amino)pyrimidin-4-yl)phenyl)-2-(1-methylpyrrolidin-2-yl)acetamide hydrochloride]: the “GPR52 agonist activity (%)” value amounted to 74%. Take `COc1ccc(CCNc2nccc(-c3cccc(NC(=O)CCN(C)C)c3)n2)cc1OC` [Working Example 29, N-(3-(2-((2-(3,4-dimethoxyphenyl)ethyl)amino)pyrimidin-4-yl)phenyl)-N^3,N^3-dimethyl-β-alaninamide]: the “GPR52 agonist activity (%)” value is 85%. On to `COc1ccc(CCNc2nccc(-c3cccc(NC(=O)CCCN4CCCCC4)c3)n2)cc1OC` [Working Example 31, N-(3-(2-(2-(3,4-Dimethoxy-phenyl)ethylamino)pyrimidin-4-yl)phenyl)-4-(piperidin-1-yl)butanamide], for which the “GPR52 agonist activity (%)” value worked out at 98%.

As to `COc1ccc(CCNc2nccc(-c3cccc(C(=O)N(C)CCCN(C)C)c3)n2)cc1OC` [Working Example 37, 3-(2-(2-(3,4-Dimethoxyphenyl)ethylamino)pyrimidin-4-yl)-N-(3-dimethylaminopropyl)-N-methylbenzamide hydrochloride], the “GPR52 agonist activity (%)” value was 92%.

As for `COc1ccc(CCOc2cccc(-c3cccc(C(=O)NCCN4CCCC4)c3)n2)cc1OC` [Working Example 39, 3-(6-(2-(3,4-dimethoxyphenyl)ethoxy)pyridin-2-yl)-N-(2-pyrrolidin-1-ylethyl)benzamide], the “GPR52 agonist activity (%)” value is 106%. In the case of `COc1ccc(CCOc2cccc(-c3cccc(C(=O)NCCN4CCCC4)c3)c2)cc1OC` [Working Example 40, 3′-(2-(3,4-Dimethoxyphenyl)ethoxy)-N-(2-pyrrolidin-1-ylethyl)biphenyl-3-carboxamide] it was 87%. As to `COc1ccc(CCOc2cccc(-c3cccc(C(=O)NC4CCOCC4)c3)n2)cc1OC` [Working Example 41, 3-(6-(2-(3,4-Dimethoxyphenyl)ethoxy)pyridin-2-yl)-N-(tetrahydro-2H-pyran-4-yl)benzamide], the “GPR52 agonist activity (%)” value worked out at 56%. Regarding `COc1ccc(CCOc2cc(-c3cccc(C(=O)NCCN4CCCC4)c3)ccn2)cc1OC` [Working Example 42, 3-(2-(2-(3,4-Dimethoxyphenyl)ethoxy)pyridin-4-yl)-N-(2-pyrrolidin-1-ylethyl)benzamide], the “GPR52 agonist activity (%)” value turned out to be 71%. With `COc1ccc(CCOc2cncc(-c3cccc(C(=O)NCCN4CCCC4)c3)c2)cc1OC` [Working Example 44, 3-(5-(2-(3,4-Dimethoxyphenyl)ethoxy)pyridin-3-yl)-N-(2-pyrrolidin-1-ylethyl)benzamide], the “GPR52 agonist activity (%)” value is listed as 68%. For the compound `COc1ccc(CCOc2ccnc(-c3cccc(C(=O)NCCN4CCCC4)c3)n2)cc1OC` [Working Example 45, 3-(4-(2-(3,4-Dimethoxyphenyl)ethoxy)pyrimidin-2-yl)-N-(2-pyrrolidin-1-ylethyl)benzamide], the “GPR52 agonist activity (%)” value was determined as 85%.

With `COc1ccc(CCOc2nccc(-c3cccc(C(=O)NCCN4CCCC4)c3)n2)cc1OC` [Working Example 46, 3-(2-(2-(3,4-Dimethoxyphenyl)ethoxy)pyrimidin-4-yl)-N-(2-pyrrolidin-1-ylethyl)benzamide], the “GPR52 agonist activity (%)” value is reported as 99%. For the compound `COc1ccc(CCOc2cccc(-c3cccc(C(N)=O)c3)n2)cc1OC` [Working Example 49], the “GPR52 agonist activity (%)” value amounted to 55%. With `COc1ccc(CCOc2cccc(-c3cccc(NC(=O)NCCN(C)C)c3)n2)cc1OC` [Working Example 53] the figure was 113%; with `Cc1cccc(CCOc2cccc(-c3cccc(C(=O)NCCO)c3)n2)c1` [Working Example 59, N-(2-Hydroxyethyl)-3-(6-(2-(3-methylphenyl)ethoxy)pyridin-2-yl)benzamide], 84%. `O=C(Nc1nccs1)c1cccc(-c2cccc(OCCc3cccc(F)c3)n2)c1` [Working Example 61, 3-(6-(2-(3-Fluorophenyl)ethoxy)pyridin-2-yl)-N-1,3-thiazol-2-ylbenzamide]: the “GPR52 agonist activity (%)” value was 43%. With `O=C(NCCO)c1cccc(-c2cccc(OCCc3cccc(C(F)(F)F)c3)n2)c1` [Working Example 65, N-(2-hydroxyethyl)-3-(6-(2-(3-(trifluoromethyl)phenyl)ethoxy)pyridin-2-yl)benzamide] the figure was 64%; with `COc1cccc(CCOc2cccc(-c3cccc(C(=O)NC4CCOCC4)c3)n2)c1` [Working Example 67, 3-(6-(2-(3-Methoxyphenyl)ethoxy)pyridin-2-yl)-N-(tetrahydro-2H-pyran-4-yl)benzamide], 48%. In the case of `COc1cccc(CCOc2cccc(-c3cccc(C(=O)NCCO)c3)n2)c1` [Working Example 69, N-(2-hydroxyethyl)-3-(6-(2-(3-methoxyphenyl)ethoxy)pyridin-2-yl)benzamide] it was 65%; in that of `COc1cccc(CCOc2cccc(-c3cccc(C(=O)Nc4ccc(F)nc4)c3)n2)c1` [Working Example 75, N-(6-Fluoropyridin-3-yl)-3-(6-(2-(3-methoxyphenyl)ethoxy)pyridin-2-yl)benzamide], 60%; in that of `COc1cccc(CCOc2cccc(-c3cccc(C(=O)Nc4ccccn4)c3)n2)c1` [Working Example 76, 3-(6-(2-(3-Methoxyphenyl)ethoxy)pyridin-2-yl)-N-pyridin-2-ylbenzamide], 52%.

In the case of `O=C(NCCN1CCCC1)c1cccc(-c2cccc(Oc3ccc(Cl)c(Cl)c3)n2)c1` [Working Example 82, 3-(6-(3,4-Dichlorophenoxy)pyridin-2-yl)-N-(2-pyrrolidin-1-ylethyl)benzamide], the “GPR52 agonist activity (%)” value is 64%.
